Results on six compounds are retold here after patent publication US20160152976A1, “COMPOUND ADMINISTRATION PRECURSOR AND MEDICAMENT CARRIER PREPARATION” (HitGen LTD., priority 2013, published 2016).

{C12NH2} = amino-(CH2)12 linker attached through a phosphate; {C12NH2-P} = aminododecyl phosphate linker; {FITC} = fluorescein isothiocyanate label

The test system of data set [1] is HepG2 cells. Description: Transmembrane transfer of DNA/RNA fragments and drug-delivery precursors into HepG2 cells, laser confocal microscope. Type of data set: cell-based. The settings on record: 4 nmol, X-tremeGENEsiRNA transfection reagent, 6 h, laser confocal microscope (FIG. 11).
Procedure: 24 h before transfer, the HepG2 cells in the phase of logarithmic growth were digested with trypsin; a culture medium containing 10% serum was used for adjusting the cell density to 0.5×10^6 cells/mL; and the cells were inoculated again in a cell culture dish of 15 cm and cultured in a culture incubator containing 5% CO2 at 37° C. The cells may be used for experiments when the cell density reaches 60% to 70% 24 h later.
4 nmol of the above-mentioned single-stranded or double-stranded DNA/RNA fragments in different sequences and various drug-delivery precursors was added to a sterile centrifuge tube (tube A) of 15 mL, respectively, and uniformly mixed with Opti-MEM in a corresponding volume, with a total volume of 2 mL; the X-tremeGENEsiRNA reagent was shaken gently, and 160 μL of X-tremeGENEsiRNA reagent was mixed with 1.84 mL of Opti-MEM in another tube (tube B); and the solution in the tube A was mixed with the solution in the tube B, the mixture was slightly triturated by a pipette and incubated for 20 min at room temperature.
6 mL of RPMI-1640 serum-free culture medium was added to the mixture and mixed uniformly; the primary culture medium in the HepG2 cell culture dish was discarded, and slightly triturated with RPMI-1640 serum-free culture medium once; and then, the mixture was moved into the HepG2-PT cell culture dish, and cultured in a culture incubator containing 5% CO2 at 37° C.
The test system of data set [2] is HepG2 cells. The settings on record: original compound 2 linked to the fluorescent tag (FIG. 8A).
Procedure: 24 h before transfer, the HepG2 cells in the phase of logarithmic growth were digested with trypsin; a culture medium containing 10% serum was used for adjusting the cell density to 1.0×10^7cells/20 mL; and the cells were inoculated again in a cell culture dish of 15 cm and cultured in a culture incubator containing 5% CO2 at 37° C. The cells may be used for experiments when the cell density reaches 60% to 70% 24 h later.
6 mL of RPMI-1640 serum-free culture medium was added to the mixture and mixed uniformly; the primary culture medium in the HepG2 cell culture dish was discarded, and slightly triturated with. RPMI-1640 serum-free culture medium once; and then, the mixture was moved into the HepG2-PT cell culture dish, and cultured in a culture incubator containing 5% CO2 at 37° C.

Take “5-NH2—(CH2)12—PO4-TGGGCTGGCCAAACTGCTG-3′-FITC (DNA, 5' {C12NH2}, 3' {FITC}, backbone not given here)”: the “transfer into cells and positioning in the cells” value in the data set with HepG2 cells [1] is “may be all transferred into cells by X-tremesiRNA, with most of them into the cytoplasm and a few of them into the cell nucleus”.
Still for that read-out and setting: with “5′-NH2—(CH2)12—PO4-A38-3′-FITC [polyA of 38 bp]” the entry was “may be all transferred into cells by X-tremesiRNA, with most of them into the cytoplasm and a few of them into the cell nucleus”.
Take `C#CCN(CC1CCN(C(=O)Nc2ccccc2)CC1)c1cccc(-c2sc(C(=O)O)c(OCC(=O)O)c2Br)c1` [compound 2, 4-bromo-3-oxoacetic acid-5-(3-(((1-phenylcarbamoylpiperidine)-4-methyl)-N-propargylamine)phenyl)thiophene-2-formic acid]: in the data set on HepG2 cells [2], the entry into cells entry is reported as “can not enter the cells”.
For the compound “5′-NH2—(CH2)12—PO4-A5-3′-FITC [polyA of 5 bp]”, in the data set with HepG2 cells [1], the “transfer into cells and positioning in the cells” value is “may be all transferred into cells by X-tremesiRNA, with most of them into the cytoplasm and a few of them into the cell nucleus”.
Turning to “5′-NH2—(CH2)2—PO4-A19-3′-FITC [polyA of 19 bp]”, the “transfer into cells and positioning in the cells” value in the data set with HepG2 cells [1] is “may be all transferred into cells by X-tremesiRNA, with most of them into the cytoplasm and a few of them into the cell nucleus”.
Still for that read-out and setting: with “5′-NH2—(CH2)12—PO4TGGGCTGGCCAAACTGCTG-3′-FITC: 5′-CAGCAGTTTGGCCAGCCCA-3′ (chain 1: DNA, 5' {C12NH2-P}, 3' {FITC}, backbone not given here; chain 2: DNA, backbone not given here)” the entry was “may be all transferred into cells by X-tremesiRNA, with most of them into the cytoplasm and a few of them into the cell nucleus”.
